Data: patent US20200278355A1, “CONJUGATED PROTEINS AND USES THEREOF” (THE SCRIPPS RESEARCH INSTITUTE, priority 2017, published 2020)

Biological target: T1, TXN (Homo sapiens, UniProt P10599)
T1 construct: H460 cells or H460 cells expressing luciferase in a 10 cm plate were incubated with indicated compounds; endogenous in cells; host or cells: H460
Test: isoTOP-ABPP of compound-treated H460 cells: TXN
Type: cell-based
Details: TXN C35; 40 μM
Procedure: For analysis of NR0B1 ligands or control compound reactivity, H460 cells or H460 cells expressing luciferase in a 10 cm plate were incubated with indicated compounds in serum/dye-free RPMI for 3 hours at 37° C. Cells were washed once ice-cold PBS and lysed in 1% Triton X-100 dissolved in PBS with protease inhibitors (Sigma) by sonication. Samples were clarified by centrifugation for 10 min at 16,000×g. Lysate was adjusted to 1.5 mg ml^−1 in 500 μL.
Samples were labeled for 1 h at ambient temperature with 100 μM iodoacetamide alkyne (1, IA-alkyne, 5 μL of 10 mM stock in DMSO). Samples were conjugated by copper-catalyzed azide-alkyne cycloaddition (CuAAC) to isotopically labeled, TEV-cleavable tags (TEV-tags). Heavy CuAAC reaction mixtures was added to the DMSO-treated or shGFP control samples and light CuAAC reaction mixture was added to compound-treated or shNRF2 samples. The CuAAC reaction mixture consisted of TEV tags (light or heavy, 10 μL of 5 mM stocks in DMSO, final concentration=100 μM), 1 mM tris(2-carboxyethyl)phosphine hydrochloride (TCEP; fresh 50× stock in water, final concentration=1 mM), ligand (17× stock in DMSO:t-butanol 1:4, final concentration=100 μM) and 1 mM CuSO4 (50× stock in water, final concentration=1 mM). The samples were allowed to react for 1 h at which point the samples were centrifuged (16,000×g, 5 min, 4° C.). […]

T1 sequence (P10599 whole entry): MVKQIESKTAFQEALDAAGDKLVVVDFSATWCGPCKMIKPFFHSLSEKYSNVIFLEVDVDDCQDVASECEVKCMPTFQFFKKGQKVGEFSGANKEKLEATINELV

SMILES: O=C(c1ccc(N2CCOCC2)cc1)N1CCCC(N(Cc2ccccc2)C(=O)CCl)CC1 (stereo not shown) [BPK-29, N-benzyl-2-chloro-N-(1-(4-morpholinobenzoyl)azepan-4-yl)acetamide]
- BPK-29-competed isoTOP-ABPP analysis: Yes (Competed defined as showing R value ≥ 3.0 at 40 μM of test compound)
